Data from ChEMBL document CHEMBL3046801, “Synthesis of 2-R1-2-(4-(2-fluoroethoxy)benzamido)acetate as potential PET imaging agents” (Med Chem Res, 2012).

Assays:
[1] = Chemical stability in acetonitrile at 60 degC up to 30 min by HPLC analysis; format: physicochemical; details: 0.5 h
Liver [2] = test: Biodistribution in tumor bearing Mus musculus KM (mouse) liver at 3.7 MBq, iv measured at 30 min by microPET imaging analysis; format: ADME, organism-based; details: in vivo, 0.5 h
Blood [3] = test: Clearance in tumor-bearing Mus musculus KM (mouse) blood at 3.7 MBq, iv measured at 60 min; format: ADME, organism-based; details: in vivo, 1 h
Heart [4] = test: Biodistribution in tumor bearing Mus musculus KM (mouse) heart at 3.7 MBq, iv measured at 60 min by microPET imaging analysis; format: ADME, organism-based; details: in vivo, 1 h
Lung [5] = test: Biodistribution in tumor bearing Mus musculus KM (mouse) lung at 3.7 MBq, iv by microPET imaging analysis; format: ADME, organism-based; details: in vivo, TDE = time-dependent effect
[6] = Metabolic stability in serum after 1 hr by HPLC analysis; format: ADME
Brain [7] = test: Biodistribution in tumor bearing Mus musculus KM (mouse) brain at 3.7 MBq, iv measured at 30 min by microPET imaging analysis; format: ADME, organism-based; details: in vivo, 0.5 h
Muscle tissue [8] = test: Biodistribution in tumor bearing Mus musculus KM (mouse) muscle at 3.7 MBq, iv by microPET imaging analysis; format: ADME, organism-based; details: in vivo, TDE = time-dependent effect
Brain [9] = test: Biodistribution in tumor bearing Mus musculus KM (mouse) brain at 3.7 MBq, iv measured at 120 min by microPET imaging analysis; format: ADME, organism-based; details: in vivo, 2 h
Blood [10] = test: Biodistribution in tumor bearing Mus musculus KM (mouse) blood at 3.7 MBq, iv measured at 15 min by microPET imaging analysis; format: ADME, organism-based; details: in vivo, 0.25 h
[11] = Octanol-PBS partition coefficient of the compound at pH 7.4 by gamma counter; format: physicochemical; details: read-out: log KOW
Lung [12] = test: Biodistribution in tumor bearing Mus musculus KM (mouse) lung at 3.7 MBq, iv measured at 5 min by microPET imaging analysis; format: ADME, organism-based; details: in vivo
Spleen [13] = test: Biodistribution in tumor bearing Mus musculus KM (mouse) spleen at 3.7 MBq, iv measured at 60 min by microPET imaging analysis; format: ADME, organism-based; details: in vivo, 1 h
Heart [14] = test: Biodistribution in tumor bearing Mus musculus KM (mouse) heart at 3.7 MBq, iv measured at 15 min by microPET imaging analysis; format: ADME, organism-based; details: in vivo, 0.25 h
Muscle tissue [15] = test: Biodistribution in tumor bearing Mus musculus KM (mouse) muscle at 3.7 MBq, iv measured at 5 min by microPET imaging analysis; format: ADME, organism-based; details: in vivo
Blood [16] = test: Biodistribution in tumor bearing Mus musculus KM (mouse) blood at 3.7 MBq, iv measured at 120 min by microPET imaging analysis; format: ADME, organism-based; details: in vivo, 2 h
Lung [17] = test: Biodistribution in tumor bearing Mus musculus KM (mouse) lung at 3.7 MBq, iv measured at 30 min by microPET imaging analysis; format: ADME, organism-based; details: in vivo, 0.5 h
Liver [18] = test: Biodistribution in tumor bearing Mus musculus KM (mouse) liver at 3.7 MBq, iv measured at 15 min by microPET imaging analysis; format: ADME, organism-based; details: in vivo, 0.25 h
Tumour [19] = test: Biodistribution in tumor of Mus musculus KM (mouse) at 3.7 MBq, iv by microPET imaging analysis; format: ADME, organism-based, Neoplasm; details: in vivo, TDE = time-dependent effect
[20] = Chemical stability in sodium chloride up to 2 hr by HPLC analysis; format: physicochemical
Kidney [21] = test: Biodistribution in tumor bearing Mus musculus KM (mouse) kidney at 3.7 MBq, iv measured at 60 min by microPET imaging analysis; format: ADME, organism-based; details: in vivo, 1 h
Tumour [22] = test: Biodistribution in tumor of Mus musculus KM (mouse) at 3.7 MBq, iv measured at 60 min by microPET imaging analysis; format: ADME, organism-based, Neoplasm; details: in vivo, 1 h
Spleen [23] = test: Biodistribution in tumor bearing Mus musculus KM (mouse) spleen at 3.7 MBq, iv measured at 120 min by microPET imaging analysis; format: ADME, organism-based; details: in vivo, 2 h
Brain [24] = test: Biodistribution in tumor bearing Mus musculus KM (mouse) brain at 3.7 MBq, iv by microPET imaging analysis; format: ADME, organism-based; details: in vivo, TDE = time-dependent effect
Brain [25] = test: Biodistribution in tumor bearing Mus musculus KM (mouse) brain at 3.7 MBq, iv measured at 5 min by microPET imaging analysis; format: ADME, organism-based; details: in vivo
Blood [26] = test: Biodistribution in tumor bearing Mus musculus KM (mouse) blood at 3.7 MBq, iv measured at 60 min by microPET imaging analysis; format: ADME, organism-based; details: in vivo, 1 h
Muscle tissue [27] = test: Biodistribution in tumor bearing Mus musculus KM (mouse) muscle at 3.7 MBq, iv measured at 30 min by microPET imaging analysis; format: ADME, organism-based; details: in vivo, 0.5 h
Brain [28] = test: Biodistribution in tumor bearing Mus musculus KM (mouse) brain at 3.7 MBq, iv measured at 60 min by microPET imaging analysis; format: ADME, organism-based; details: in vivo, 1 h
Nucleic Acid = test: Ratio of drug uptake in tumor to muscle in Mus musculus KM (mouse) at 3.7 MBq, iv at 60 min; format: ADME, organism-based; details: in vivo, 1 h
Liver [29] = test: Biodistribution in tumor bearing Mus musculus KM (mouse) liver at 3.7 MBq, iv measured at 5 min by microPET imaging analysis; format: ADME, organism-based; details: in vivo
Tumour [30] = test: Biodistribution in tumor of Mus musculus KM (mouse) at 3.7 MBq, iv measured at 30 min by microPET imaging analysis; format: ADME, organism-based, Neoplasm; details: in vivo, 0.5 h
Kidney [31] = test: Biodistribution in tumor bearing Mus musculus KM (mouse) kidney at 3.7 MBq, iv by microPET imaging analysis; format: ADME, organism-based; details: in vivo, TDE = time-dependent effect
Liver [32] = test: Biodistribution in tumor bearing Mus musculus KM (mouse) liver at 3.7 MBq, iv measured at 60 min by microPET imaging analysis; format: ADME, organism-based; details: in vivo, 1 h
Lung [33] = test: Biodistribution in tumor bearing Mus musculus KM (mouse) lung at 3.7 MBq, iv measured at 60 min by microPET imaging analysis; format: ADME, organism-based; details: in vivo, 1 h
Heart [34] = test: Biodistribution in tumor bearing Mus musculus KM (mouse) heart at 3.7 MBq, iv measured at 120 min by microPET imaging analysis; format: ADME, organism-based; details: in vivo, 2 h
Lung [35] = test: Biodistribution in tumor bearing Mus musculus KM (mouse) lung at 3.7 MBq, iv measured at 120 min by microPET imaging analysis; format: ADME, organism-based; details: in vivo, 2 h
Heart [36] = test: Biodistribution in tumor bearing Mus musculus KM (mouse) heart at 3.7 MBq, iv by microPET imaging analysis; format: ADME, organism-based; details: in vivo, TDE = time-dependent effect
Blood [37] = test: Biodistribution in tumor bearing Mus musculus KM (mouse) blood at 3.7 MBq, iv measured at 5 min by microPET imaging analysis; format: ADME, organism-based; details: in vivo
Kidney [38] = test: Clearance in tumor-bearing Mus musculus KM (mouse) kidney at 3.7 MBq, iv measured at 60 min; format: ADME, organism-based; details: in vivo, 1 h
Tumour [39] = test: Biodistribution in tumor of Mus musculus KM (mouse) at 3.7 MBq, iv measured at 5 min by microPET imaging analysis; format: ADME, organism-based, Neoplasm; details: in vivo
Brain [40] = test: Biodistribution in tumor bearing Mus musculus KM (mouse) brain at 3.7 MBq, iv measured at 15 min by microPET imaging analysis; format: ADME, organism-based; details: in vivo, 0.25 h
Liver [41] = test: Clearance in tumor-bearing Mus musculus KM (mouse) liver at 3.7 MBq, iv measured at 60 min; format: ADME, organism-based; details: in vivo, 1 h
Blood [42] = test: Biodistribution in tumor bearing Mus musculus KM (mouse) blood at 3.7 MBq, iv measured at 30 min by microPET imaging analysis; format: ADME, organism-based; details: in vivo, 0.5 h
Liver [43] = test: Biodistribution in tumor bearing Mus musculus KM (mouse) liver at 3.7 MBq, iv measured at 120 min by microPET imaging analysis; format: ADME, organism-based; details: in vivo, 2 h

Q: What does the source list for `COC(=O)CNC(=O)c1ccc(OCC[18F])cc1` [[18F]FEBA]?
A: Stability [1]: Stable; Drug uptake (Liver [2]): 1.08 % ID/g; CL (Blood [3]): 96%; Drug uptake (Heart [4]): 0.91 % ID/g; Drug uptake (Lung [5]): tde; Stability [6]: Stable; Drug uptake (Brain [7]): 0.51 % ID/g; Drug uptake (Muscle tissue [8]): tde; Drug uptake (Brain [9]): 0.6 % ID/g; Drug uptake (Blood [10]): 2.17 % ID/g; logD [11]: 0.57; Drug uptake (Lung [12]): 5.09 % ID/g; Drug uptake (Spleen [13]): 0.64 % ID/g; Drug uptake (Heart [14]): 1.93 % ID/g; Drug uptake (Muscle tissue [15]): 2.02 % ID/g; Drug uptake (Blood [16]): 0.85 % ID/g; Drug uptake (Lung [17]): 1.32 % ID/g; Drug uptake (Liver [18]): 2.11 % ID/g; Drug uptake (Tumour [19]): tde; Stability [20]: Stable; Drug uptake (Kidney [21]): 0.97 % ID/g; Drug uptake (Tumour [22]): 1.48 % ID/g; Drug uptake (Spleen [23]): 0.6 % ID/g; Drug uptake (Brain [24]): tde; Drug uptake (Brain [25]): 1.51 % ID/g; Drug uptake (Blood [26]): 0.98 % ID/g; Drug uptake (Muscle tissue [27]): 0.94 % ID/g; Drug uptake (Brain [28]): 0.55 % ID/g; Ratio (Nucleic Acid): 2.8; Drug uptake (Liver [29]): 4.19 % ID/g; Drug uptake (Tumour [30]): 1.71 % ID/g; Drug uptake (Kidney [31]): tde; Drug uptake (Liver [32]): 0.73 % ID/g; Drug uptake (Lung [33]): 0.87 % ID/g; Drug uptake (Heart [34]): 0.77 % ID/g; Drug uptake (Lung [35]): 0.76 % ID/g; Drug uptake (Heart [36]): tde; Drug uptake (Blood [37]): 4.68 % ID/g; CL (Kidney [38]): 97%; Drug uptake (Tumour [39]): 2.12 % ID/g; Drug uptake (Brain [40]): 1.26 % ID/g; CLH (Liver [41]): 91%; Drug uptake (Blood [42]): 1.28 % ID/g; Drug uptake (Liver [43]): 0.68 % ID/g
